Test results taken from ChEMBL document CHEMBL3507680, “University of Dundee, Gates Library screen for HepG2 cell viability”.

Test: Human HepG2 cell viability assay in 384 well format
Assay type: toxicity, cell-based
Design: dose 125 nL, time 70.5 hour; concentration not given beside the values
Conditions: HepG2 cells, read-out: Inhibition

Row | Compound | cytotoxicity at 70.5 h [%]
1 | CSCc1ccc(C(=O)NCCCNc2ccc(C(F)(F)F)cn2)cc1 | -13.3
2 | COCc1ccc(C(=O)NCCCNc2ccc(C(F)(F)F)cn2)cc1 | -11.2
3 | Cn1cc(C#N)c(=O)n(CC(O)c2ccccc2F)c1=O (centres undefined) | -13.2
4 | Cc1cc(NC(=O)NCC(O)COc2ccccc2)n(C)n1 (centres undefined) | -11.6
5 | N#Cc1cn(C2CC2)c(=O)n(CC(O)c2ccccc2C(F)(F)F)c1=O (centres undefined) | -15.2
6 | Cn1cc(Cl)cc1C(=O)N1CCN(CCc2cccs2)CC1 | -4.15
7 | Cc1ccc(C(=O)N2CCCN(Cc3cccs3)CC2)n1C | -7.93
8 | CC(C)(CNC(=O)COc1cccc(F)c1)C(N)=O | -9.07
9 | Cc1cc(C)c(CNC(=O)N2CCN(c3ccncc3)CC2)c(=O)[nH]1 | -9.77
10 | c1coc(-c2noc(CN3CCc4cncnc4C3)n2)c1 | -7.56
11 | O=C(NCCCOCC1CC1)Nc1ccc(-n2cncn2)c(F)c1 | -13.3
12 | Cc1cnn(CC(=O)N2CCC(Nc3ccc(C)nn3)CC2)c1 | 12.8
13 | Cc1ccsc1CNCC1CCCN1c1cccnn1 (centres undefined) | 19.9
14 | COc1cccc(COCC(=O)N2CCCCCC2)c1 | 17.5
15 | CC(C)CCc1nc(CNCC2CCCN2c2cccnn2)cs1 (centres undefined) | 12.1
16 | Cc1nc(CN2CCCC2Cn2cncn2)no1 (centres undefined) | 13.1
17 | CC(C)Cc1nc(CN2CCCC2Cn2cncn2)no1 (centres undefined) | -7.43
18 | COCCc1noc(CN2CCCCC2Cn2cncn2)n1 (centres undefined) | -8.74
19 | CC(C)c1nc(CN2CCCC2Cn2cncn2)no1 (centres undefined) | 5.22
20 | CCc1nc(CNCC2CCCN2c2cccnn2)cs1 (centres undefined) | -6.05
21 | CC(C)c1nc(CNCC2CCCN2c2cccnn2)cs1 (centres undefined) | -8.04
22 | c1ccc(-c2nc(CN3CCCC3Cn3cncn3)no2)cc1 (centres undefined) | -13.3
23 | Cc1ncsc1C(=O)N(C)Cc1ccsc1 | -12.2
24 | CCN(CC1COc2ccccc2O1)C(=O)NCCCn1cncn1 (centres undefined) | -10.8

Row | Compound | cytotoxicity at 70.5 h [%]
25 | O=C(Cn1nc(-c2ccc(F)cc2)oc1=O)NCCc1ccccc1 | -10.7
26 | Cc1nn(C)c(C)c1C(=O)NCc1ccnc(OCC(F)(F)F)c1 | -4.39
27 | COCCn1cc(NC(=O)NCC(c2cccc(F)c2)N(C)C)cn1 (centres undefined) | -2.22
28 | Cc1cc(C)n(-c2ccc(CNCc3ccc(C)o3)cn2)n1 | -7.08
29 | CCn1cc(NC(=O)NCC(c2ccsc2)N(C)C)cn1 (centres undefined) | -6.99
30 | O=C(Nc1ccncc1)N(CCO)Cc1ccsc1 | -20
31 | COc1ccc(OC2CCN(C(=O)c3ccc(C)[nH]c3=O)CC2)cc1 | -5.37
32 | CCN(CC1COc2ccccc2O1)C(=O)CCn1cncn1 (centres undefined) | -5.89
33 | Cc1oncc1C(=O)NCc1ccnc(OCC(F)(F)F)c1 | 11
34 | NC(=O)c1cnn2c1NCC(CNCCOc1ccccc1)C2 (centres undefined) | -5.14
35 | CC(=O)NCc1ccc(C(=O)NC2CCc3nc(C)cn3C2)o1 (centres undefined) | -3.32
36 | Cc1nc(CN2CCN(C(=O)NC(C)Cn3ccnc3)CC2)cs1 (centres undefined) | -0.978
37 | COc1c(CNC(c2ccccc2)c2nccn2C)c(C)nn1C (centres undefined) | -0.0475
38 | COCC(=O)NC(C)Cc1ccc(Br)cc1 (centres undefined) | 2.28
39 | Cc1cc(C)cc(C(=O)Nc2cn[nH]c2)c1 | -8.68
40 | COCC(=O)NC(C)Cc1cccc(Cl)c1 (centres undefined) | 5.75
41 | CCN(Cc1ccc2c(c1)OCO2)C(=O)c1cccnc1O | -5.82
42 | CN(Cc1ccc(O)cc1)C(=O)NC1CCCN(c2ncccn2)C1 (centres undefined) | -3.14
43 | CC1CCCN(C(=O)NCCCn2cncn2)C1 (centres undefined) | -4.06
44 | CC(Cn1ccnc1)NC(=O)N1CCN(Cc2ccsc2)CC1 (centres undefined) | -2.59
45 | CN1CCCC1CNC(=O)CCCOc1ccc(Cl)cc1 (centres undefined) | -2.04
46 | O=C(CCc1nc2ccccc2[nH]1)N1CCCC(n2cccn2)C1 (centres undefined) | 2.61
47 | Cc1occc1C(=O)Nc1cnn(CCN2CCOCC2)c1 | 16.8
48 | O=C(CCS(=O)(=O)c1ccccc1)N1CCCC(n2cccn2)C1 (centres undefined) | -2.57

Row | Compound | cytotoxicity at 70.5 h [%]
49 | Cc1ccccc1C(=O)Nc1cnn(CCN2CCOCC2)c1 | 5.4
50 | CNc1nc(CNC(=O)Nc2ccccc2C(F)(F)F)cs1 | -2.38
51 | CNc1nc(CNC(=O)Nc2cccc(Cl)c2OC)cs1 | -3.54
52 | Cc1nc(C2CCCN2CCS(C)(=O)=O)no1 (centres undefined) | 21.3
53 | COc1ccc(CNCc2c(C(C)C)nn(C)c2OC)cn1 | -0.773
54 | CSCCCN1CCCC1c1noc(C(C)C)n1 (centres undefined) | -0.353
55 | CC(C)c1nccn1C1CCCN(C(=O)c2cccc3[nH]ncc23)C1 (centres undefined) | -8.02
56 | Cc1cc(C)n(CC2CCCN2Cc2cscn2)n1 (centres undefined) | 5.49
57 | Cc1cnc(C(=O)Nc2cc(F)ccc2OCC2CCCO2)cn1 (centres undefined) | -6.23
58 | Cc1nc(CN2CCCC(NCC(=O)Nc3cccnc3)C2)no1 (centres undefined) | -8.83
59 | Cc1cc(NC(=O)CN2CCn3c(nnc3C3CC3)C2)no1 | -5.22
60 | Cc1nc2ccccc2nc1CN1CCCCC1Cn1cncn1 (centres undefined) | -8.21
61 | CCc1nccn1C1CCCN(C(=O)c2ccc3[nH]nnc3c2)C1 (centres undefined) | -8.95
62 | CC(C)c1nnc2n1CCN(C(=O)COc1ccc(C(N)=O)cc1)C2 | -6.98
63 | Cn1nc(C(=O)N2CCCC(n3cncn3)C2)ccc1=O (centres undefined) | -7.35
64 | Cn1cc(C(=O)N2CCCC(n3cncn3)C2)ccc1=O (centres undefined) | -9.74
65 | Cc1cc(NC(=O)CN2CCn3c(C)nnc3C2)no1 | -7.43
66 | Cc1cnc(CN2CCOC(CN(C)c3cccnn3)C2)cn1 (centres undefined) | -0.738
67 | Cc1nc(CN(C)CC2CCCN2c2cccnn2)oc1C (centres undefined) | -1.57
68 | Cc1nc(C)c(C(=O)N2CCCN(Cc3cnn(C)c3)CC2)s1 | -3.11
69 | CC(C)S(=O)(=O)C(C)C(=O)NCc1cccc(N2CCCCC2=O)c1 (centres undefined) | 13.6
70 | CNS(=O)(=O)c1cccc(CNC(=O)NCC2CCOC2)c1 (centres undefined) | -8.46
71 | Cc1noc(C2CCN(C(=O)c3cc(Br)ccc3F)CC2)n1 | -2.54
72 | O=C(c1ccccn1)N1CCCN(Cc2nnc(C3CC3)o2)CC1 | -9.21

Row | Compound | cytotoxicity at 70.5 h [%]
73 | CN(Cc1ccco1)C(=O)CN1CCCC1Cn1cccn1 (centres undefined) | -3.69
74 | CN(Cc1ccco1)C(=O)CN1CCCCC1Cn1cncn1 (centres undefined) | -8.72
75 | O=C(NCc1cccc(N2CCCCC2=O)c1)[C@@H](O)c1ccccc1 | -7.54
76 | COC(=O)N1CCCN(C(=O)c2cccc3cccnc23)CC1 | -7.61
77 | Cc1nnc(N2CCC(NS(C)(=O)=O)CC2)c(C#N)c1C | -5.64
78 | Cc1cc(CN(C)C(=O)NC2CCN(S(C)(=O)=O)CC2)no1 | -9.54
79 | Cc1noc(C2CCCN(C(=O)c3ccc(F)cc3F)C2)n1 (centres undefined) | -8.76
80 | CC(O)CN(CC(=O)NC1CCCCC1)c1ccccc1 (centres undefined) | 8.65
81 | Cc1ccc2cccc(C(=O)N3CCN(c4cccnn4)CC3)c2n1 | -9.4
82 | CCn1cnnc1C1CCN(C(=O)COc2ccccc2OC)CC1 | 6.54
83 | CN(Cc1coc(-c2ccccc2)n1)CC1CCCN1c1cccnn1 (centres undefined) | 4.57
84 | CC(C(=O)Nc1ccnn1C(C)C)N1CCCN(c2nccs2)CC1 (centres undefined) | -3.68
85 | CCc1nc(CN2CCCN(C(=O)C3CCC3)CC2)cs1 | 5.44
86 | CCc1nc(CN2CCCN(C(=O)c3occc3C)CC2)cs1 | -7.91
87 | O=C(c1ccccn1)N1CCC(Nc2cccnn2)CC1 | 2.46
88 | c1ccc(-c2nc(CNCCn3cccn3)cs2)cc1 | -4.17
89 | Cc1n[nH]c(=O)c2c(NC(=O)CN3CCC(C)CC3)oc(C)c12 | -10.7
90 | O=C(NCCn1nc2ccccn2c1=O)c1cc(-c2ccccc2)[nH]n1 | -5.05
91 | CCCc1cc(C(=O)NCCn2nc3ccccn3c2=O)[nH]n1 | -9.65
92 | CC(C)(C)c1cc(C(=O)NCCn2nc3ccccn3c2=O)[nH]n1 | -4.69
93 | Cc1occc1CN(C)Cc1nc2c(cnn2C)c(=O)[nH]1 | -3.6
94 | Cc1ccc(CN(C)Cc2nc3c(cnn3C)c(=O)[nH]2)o1 | -2.01
95 | CC1CN(CC(=O)N2CCCC2)CCN1c1ccc2nncn2n1 (centres undefined) | 4.7
96 | Cc1cc(NC(=O)C(C)N2CCN(c3nc(C)cs3)CC2)on1 (centres undefined) | -5.64

Row | Compound | cytotoxicity at 70.5 h [%]
97 | CCn1cnnc1C1CCCN(C(=O)COc2ccc(Cl)cc2)C1 (centres undefined) | -5.18
98 | Cc1cn2nc(N3CCCC3Cn3cncn3)sc2n1 (centres undefined) | -3.48
99 | Cc1cc(C(=O)N2CCC(Nc3cccnn3)CC2)no1 | 11.5
100 | CN(Cc1cc(-c2ccccc2)no1)CC1CCCN1c1cccnn1 (centres undefined) | -8.09
101 | CC(O)CN1CCN(C(=O)c2cccc3[nH]ncc23)CC1 (centres undefined) | -3.67
102 | Cc1nnc(CN(C)CC2CCCN2c2cccnn2)o1 (centres undefined) | -3.53
103 | CC(C)(C)c1cn2nc(N3CCCCC3Cn3cncn3)sc2n1 (centres undefined) | 4.02
104 | CCC(O)CN1CCN(C(=O)c2cccc3[nH]ncc23)CC1 (centres undefined) | -10.6
105 | CSCCC(=O)NS(=O)(=O)c1ccc2c(c1)OCCO2 | -7.91
106 | O=C(CCc1ccc(F)cc1)NS(=O)(=O)c1ccc2c(c1)OCCCO2 | 4.05
107 | O=C(CCSc1ccccc1)NS(=O)(=O)c1ccc2c(c1)OCCO2 | -6.91
108 | CC(c1nc(C2CC2)no1)N1CCN(Cc2cccnc2)CC1 (centres undefined) | -6.99
109 | CC(C)n1nc2c(cc1=O)CN(Cc1nnc(C3CC3)o1)CC2 | -3.62
110 | CC(c1nc(C2CC2)no1)N1CCN(Cc2ccc(C#N)cc2)CC1 (centres undefined) | 5.31
111 | CCOc1cccc(NS(=O)(=O)c2cc(C(=O)O)cs2)c1 | -11.8
112 | CC1CCN(Cn2nc(-c3ccc(F)cc3)oc2=O)CC1 | 18.6
113 | Cc1cccc(C(=O)NCc2ccc(S(N)(=O)=O)cc2)n1 | -12.2
114 | CC(NC(=O)NCCNc1ncccn1)c1cccs1 (centres undefined) | 1.09
115 | CC1CCCN(CCNC(=O)c2ccn(-c3ccccc3)n2)C1 (centres undefined) | -5.27
116 | CC(C)c1cc(NC(=O)c2ccc(C(=O)NC(C)(C)C)cc2)[nH]n1 | -4.05
117 | Cn1ccc(CN2CCC(Oc3ccccc3)CC2)cc1=O | -12
118 | c1cc2n(n1)CC(CNCc1ccc(OC3CCCCC3)nc1)CN2 (centres undefined) | 0.985
119 | Cc1noc(C(C)C)c1C(=O)NCc1cc(F)cc(F)c1 | -4.07
